In patent US10072293B2, “Systems, models and methods for identifying and evaluating skin-active agents effective for treating dandruff/seborrheic dermatitis” (The Procter and Gamble Company, priority 2011, dated 2018):
Where “and” joins values, the source holds several entries; their conditions need not be identical. Equal entries are not always repeated.

Experiments:
[1] = tested on: Human telomerized keratinocytes (tKC); assay: C-map query with lipid metabolism / immune-inflammation dandruff gene signature, keratinocyte instances; type: cell-based
Description: In a very specific embodiment, an instance consists of the rank ordered data for all of the probe sets on the Affymetrix HG-U133A2.0 GeneChip wherein each probe on the chip has a unique probe set IDentifier. The probe sets are rank ordered by the fold change relative to the controls in the same C-map batch (single instance/average of controls).
Individual experiments (referred to as batches) generally comprise 30 to 96 samples analyzed using Affymetrix GeneChip® technology platforms, containing 6 replicates of the vehicle control (e.g., DMSO), 2 replicate samples of a positive control that gives a strong reproducible effect in the cell type used, and samples of the test material/perturbagen. Replication of the test material is done in separate batches due to batch effects. In vitro testing was performed in 6-well plates to provide sufficient RNA for GeneChip® analysis (2-4 μg total RNA yield/well).
(§1) Human telomerized keratinocytes (tKC) were obtained from the University of Texas, Southwestern Medical Center, Dallas, Tex. tKC cells were grown in EpiLife® media with 1× Human Keratinocyte Growth Supplement (Invitrogen, Carlsbad, Calif.) on collagen I coated cell culture flasks and plates (Becton Dickinson, Franklin Lakes, N.J.). Keratinocytes were seeded into 6-well plates at 20,000 cells/cm^2 24 hours before chemical exposure. Human skin fibroblasts (BJ cell line from ATCC, Manassas, Va.) were grown in Eagle's Minimal Essential Medium (ATCC) supplemented with 10% fetal bovine serum (HyClone, Logan, Utah) in normal cell culture flasks and plates (Corning, Lowell, Mass.). BJ fibroblasts were seeded into 6-well plates at 12,000 cells/cm^2 24 hours before chemical exposure.
All cells were incubated at 37° C. in a humidified incubator with 5% CO2. At t=−24 hours cells were trypsinized from T-75 flasks and plated into 6-well plates in basal growth medium. At t=0 media was removed and replaced with the appropriate dosing solution as per the experimental design.

[2] = tested on: human 3-dimensional organotypic cultures; assay: In vitro model of dandruff: organotypic skin cultures given IL-22 and IL-17A; type: cell-based; settings: organotypic cultures treated with IL-22 and IL-17A
Description: In some embodiments, the methods of the present invention may further comprise testing the selected candidate cosmetic agent, using in vitro assays and/or in vivo testing, to validate the activity of the agent and usefulness as a cosmetic agent. Any suitable in vitro test method can be used, including those known in the art, and most preferably in vitro models developed in accordance with the present invention. For example, MatTek human skin equivalent cultures or other skin equivalent cultures may be treated with one or a combination of perturbagens selected for mimicry of the skin condition of interest with respect to regulation of the genes constituting a physiological theme pattern for the skin condition of interest. The treated skin culture replicates the, for example, dandruff condition where it is treated with IL17 and IL22 in accordance with the instant invention, and perturbagens may be screened for their ability to shift the homeostatic equilibrium of the treated skin culture toward healthy skin, as determined by transcriptional analysis. Skin biopsy assays may also be used to evaluate candidate skin-active agents as anti-dandruff agents. In some embodiments, evaluation of selected agents using in vitro assays may reveal, confirm, or both, that one or more new candidate cosmetic agents may be used in conjunction with a known cosmetic agent (or a combination of known cosmetic agents) to regulate a skin condition of interest.
A great challenge in the identification of new therapeutics is the development of in vitro models that are predictive of clinical efficacy. Because no animal models of the dandruff condition are available, there is a need for a model with high fidelity to the internal disease state so that it recapitulates the key features of dandruff lesional skin in vivo. The challenge of developing a good in vitro model for skin conditions such as dandruff is complicated by the fact that the events that trigger the development of dandruff are poorly understood. Transcriptomic profiling work in dandruff lesional skin has provided many new clues, chief among them evidence for a Th-17 driven inflammatory process.
These substances include selenium sulfide, ZPT, ketoconazole, clobetasol propionate and the iron chelator 1,10-phenanthroline.
The in vitro disease simulation according to the invention produces a pattern of gene expression that strongly resembles dandruff lesional skin. Affymetrix U133A Plus 2 microarrays were used to evaluate the gene expression profile elicited by exposure of organotypic human skin cultures to a variety of proinflammatory cytokines individually and in combination, as set forth in FIG. 21A and FIG. 21B. […] This strongly supports that the simulation is producing a gene expression pattern that resembles the disease condition.

[3] = tested on: human keratinocytes (hKC); assay: Connectivity map linkage scores, inflammatory skin disorder signature, hKC instances; type: cell-based
Description: (§2) Gene expression data from five inflammatory skin disorders (acne, atopic dermatitis, dandruff, eczema and psoriasis) were collected from a clinical genomics study and published studies. The raw expression data were used to produce a rank-ordered list of most differentially regulated genes associated with inflammatory skin disorders.
The derived gene signature was used to query a provided database comprising gene expression data from clinical genomics studies of a widely different inflammatory skin disorders, published in vitro genomics studies of disparate inflammatory skin disorders, and genomics data from an internal in vitro model of dandruff inflammatory pathology (human organotypic, MatTek, cultures). […] Thus, the internal model was validated as being useful for study of inflammatory cascades and other gene expression alterations associated with inflammatory skin disorders.

[4] = tested on: MCF7; assay: C-map query with lipid metabolism / immune-inflammation dandruff gene signature, MCF7 instances; settings: MCF7, 10 μM
[5] = tested on: scalp skin of dandruff subjects; assay: ZPT transcriptomics study: double-blind, vehicle-controlled shampoo treatment, scalp biopsy gene expression; type: in vivo, human; settings: shampoo with 1% ZPT, 3 times a week for 3 weeks, week 3
Description: 1) 31 healthy male subjects aged 18-75 were divided into two groups of 16 “non-dandruff” and 15 “dandruff” subjects, as defined by a published flake scoring procedure, adherent scalp flake score (ASFS). […] 2) In a double-blinded treatment study, 45 healthy male subjects (30 dandruff and 15 non-dandruff as defined by ASFS criteria, aged 18-50 years) were enrolled and were shampooed at the clinical site three (3) times a week for three (3) weeks with either a commercially available anti-dandruff shampoo with 1% ZPT (15 dandruff subjects) or the same formula without ZPT (15 dandruff and 15 non-dandruff subjects). Full thickness 2 mm biopsies were collected from all three groups at baseline and end of study. Total RNA was extracted from the biopsies and labeled for Affymetrix GeneChip® analysis. The synthesized target cRNA was hybridized to Affymetrix HG U133A microarrays. Statistically analyzed data were filtered by significance (p<0.05, Dandruff vs. Non-Dandruff; ZPT vs. vehicle treatments) to identify genes showing an increase or decrease in expression level, a standard bioinformatics approach. Methodology and Results of Study 1:
The subject's hair/scalp was washed by study personnel on clinical site 3×/week for 3 weeks. Full thickness 2 mm punch biopsies collected at baseline and end of study. […]

[6] = tested on: fibroblast and keratinocyte cell lines; assay: C-map query with lipid-immune dandruff signature, whole database; type: cell-based, human; settings: each agent tested at several concentrations
Procedure: as §1
Each agent was tested at several concentrations.

[7] = tested on: reconstituted human epidermis (RHE); assay: Connectivity map linkage scores, inflammatory skin disorder signature (top 70 up / 70 down), RHE instances; type: cell-based; design: scale not given here
Description: as §2
The derived gene signature was used to query a provided database comprising gene expression data from clinical genomics studies of a widely different inflammatory skin disorders, published in vitro genomics studies of disparate inflammatory skin disorders, and genomics data from an internal in vitro model of dandruff inflammatory pathology (human organotypic, MatTek, cultures).

Molecule: CC(C)(C)C(=O)C(Oc1ccc(Cl)cc1)n1ccnc1 (centres unmarked) [Climbazole]
- Score (connectivity score) ([1]; 1 μM, 6hr (chip ID)): −0.55
- Score (connectivity score) ([1]; 10 μM, 24hr (chip ID)): −0.67

Molecule: CCC(=O)O[C@]1(C(=O)CCl)[C@@H](C)C[C@H]2[C@@H]3CCC4=CC(=O)C=C[C@]4(C)[C@@]3(F)[C@@H](O)C[C@@]21C [Clobetasol Propionate]
- Blocking of IL-22/IL-17A-induced responses (hyperplasia, perturbed differentiation markers, IL-8 secretion) [2]: capable of blocking these responses

Molecule: c1cnc2c(c1)ccc1cccnc12 [1,10-phenanthroline]
- Blocking of IL-22/IL-17A-induced responses (hyperplasia, perturbed differentiation markers, IL-8 secretion) [2]: capable of blocking these responses

Molecule: O=C(O)Cc1cc(I)c(Oc2ccc(O)c(I)c2)c(I)c1 [Triac]
- Score (connectivity score) ([1]; 10 μM, exposure time not given): −0.53

Molecule: HK23/2 IL17: interleukin; proinflammatory cytokine produced by Th-17 cells
- Down Score ([3]; 200 ng/ml): −0.151
- Score ([3]; 200 ng/ml): 0.579
- Up Score ([3]; 200 ng/ml): 0.428

Molecule: CN(CCOc1ccc(CC2SC(=O)NC2=O)cc1)c1ccccn1 (centres unmarked) [Rosiglitazone]
- Score (connectivity score) [4]: −0.51

Molecule: [O-]n1ccccc1=S.[O-]n1ccccc1=S.[Zn+2] [ZPT, zinc salt of 1-hydroxy-2-pyrithione]
- Blocking of IL-22/IL-17A-induced responses (hyperplasia, perturbed differentiation markers, IL-8 secretion) [2]: capable of blocking these responses
- Scalp gene expression profile shift (~3700 significantly altered genes, hierarchical clustering) [5]: expression shift toward the non-dandruff condition
- Linkage to lipid-immune dandruff gene signature [6]: not in the list of instances strongly linked to the gene signature

Molecule: CC(=O)N1CCN(c2ccc(OCC3COC(Cn4ccnc4)(c4ccc(Cl)cc4Cl)O3)cc2)CC1 (centres unmarked) [Ketoconazole]
- Score (connectivity score) ([1]; 1 μM, 24hr (chip ID)): −0.58
- Blocking of IL-22/IL-17A-induced responses (hyperplasia, perturbed differentiation markers, IL-8 secretion) [2]: capable of blocking these responses

Molecule: S=[Se]=S [selenium sulfide]
- Blocking of IL-22/IL-17A-induced responses (hyperplasia, perturbed differentiation markers, IL-8 secretion) [2]: capable of blocking these responses
- Linkage to lipid-immune dandruff gene signature [6]: not in the list of instances strongly linked to the gene signature

Molecule: IL1b: interleukin
- Score ([7]; 10 ng/ml): 0.710 and 0.649
- Up Score ([7]; 10 ng/ml): 0.420 and 0.380

B1: IL19: interleukin (protein, UniProt Q9UHD0 25-177, looked up)
Interleukin-19: LRRCLISTDMHHIEESFQEIKRAIQAKDTFPNVTILSTLETLQIIKPLDVCCVTKNLLAFYVDRVFKDHQEPNPKILRKISSIANSFLYMQKTLRQCQEQRQCHCRQEATNATRVIHDNYDQLEVHAAAIKSLGELDVFLAWINKNHEVMFSA
- Score ([7]; 20 ng/ml): 0.749 and 0.729 and 0.807
- Up Score ([7]; 20 ng/ml): 0.410 and 0.460 and 0.505

B2: IL22: interleukin; proinflammatory cytokine produced by Th-17 cells (protein, UniProt Q9GZX6 34-179, looked up)
Interleukin-22: APISSHCRLDKSNFQQPYITNRTFMLAKEASLADNNTDVRLIGEKLFHGVSMSERCYLMKQVLNFTLEEVLFPQSDRFQPYMQEVVPFLARLSNRLSTCHIEGDDLHIQRNVQKLKDTVKKLGESGEIKAIGELDLLFMSLRNACI
- Score ([7]; 20 ng/ml): 0.789 and 0.740 and 0.705
- Up Score ([7]; 20 ng/ml): 0.444 and 0.410 and 0.388
- Down Score ([3]; 200 ng/ml): −0.214
- Score ([3]; 200 ng/ml): 0.573
- Up Score ([3]; 200 ng/ml): 0.358

B3: IL24: interleukin (protein, UniProt Q13007 52-206, looked up)
Interleukin-24: QEFHFGPCQVKGVVPQKLWEAFWAVKDTMQAQDNITSARLLQQEVLQNVSDAESCYLVHTLLEFYLKTVFKNYHNRTVEVRTLKSFSTLANNFVLIVSQLQPSQENEMFSIRDSAHRRFLLFRRAFKQLDVEAALTKALGEVDILLTWMQKFYKL
- Score ([7]; 20 ng/ml): 0.833 and 0.829 and 0.801
- Up Score ([7]; 20 ng/ml): 0.485 and 0.517 and 0.461

B4: IFNg: interferon (protein, UniProt P01579 24-161, looked up)
Interferon gamma: QDPYVKEAENLKKYFNAGHSDVADNGTLFLGILKNWKEESDRKIMQSQIVSFYFKLFKNFKDDQSIQKSVETIKEDMNVKFFNSNKKKRDDFEKLTNYSVTDLNVQRKAIHELIQVMAELSPAAKTGKRKRSQMLFRG
- Score ([7]; 10 ng/ml): 0.665 and 0.657
- Up Score ([7]; 10 ng/ml): 0.420 and 0.431
- Down Score ([3]; 20 ng/ml): −0.102
- Score ([3]; 20 ng/ml): 0.552
- Up Score ([3]; 20 ng/ml): 0.450
